Source: patent US6737383B1, “Herbicidal oxadiazolidines” (priority 1999, dated 2004)

Experiments:
[1] = test system: soybean; test: Test B pre/postemergence soybean; format: in vivo, Glycine max; settings: for Soybean plant response rating: scale of 0 to 10 where 0 is no effect and 10 is complete control
Procedure, shortened: (§1)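 Herbicidal effect was estimated by eye on a ten-point control scale after plants spent twelve to sixteen days in a greenhouse following soil or foliar treatment. Foliar sprays targeted plants at one to four leaves; all doses were formulated in a non-phytotoxic solvent with surfactant.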

[2] = test system: rape; test: Test B pre/postemergence rape; format: in vivo, Brassica napus; settings: for Rape plant response rating: scale of 0 to 10 where 0 is no effect and 10 is complete control
Procedure, shortened: as §1

[3] = test system: bamyardgrass; test: Test B flood test barnyardgrass; format: in vivo, Echinochloa crus-galli
Procedure, shortened: (§2)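 Each value is a visual injury score relative to controls, with 10 meaning complete control and 0 no effect. Evaluation took place twelve to sixteen days after the 2-leaf-stage plants were treated and kept in the greenhouse.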

[4] = test system: sugar beet; test: Test B pre/postemergence sugar beet; format: in vivo, Beta vulgaris; settings: for Sugarbeets plant response rating: scale of 0 to 10 where 0 is no effect and 10 is complete control
Procedure, shortened: as §1

[5] = test system: surinam grass; test: Test B pre/postemergence surinam grass; format: in vivo, Brachiaria decumbens
Procedure, shortened: as §1

[6] = test system: giant foxtail; test: Test B pre/postemergence giant foxtail; format: in vivo, Setaria faberii; settings: for Giant foxtail plant response rating: scale of 0 to 10 where 0 is no effect and 10 is complete control
Procedure, shortened: as §1

[7] = test system: purple nutsedge; test: Test B pre/postemergence purple nutsedge; format: in vivo, Cyperus rotundus; settings: for Nutsedge plant response rating: scale of 0 to 10 where 0 is no effect and 10 is complete control
Procedure, shortened: as §1

[8] = test system: wheat; test: Test B pre/postemergence wheat; format: in vivo, Triticum aestivum; settings: for Wheat plant response rating: scale of 0 to 10 where 0 is no effect and 10 is complete control
Procedure, shortened: as §1

[9] = test system: cocklebur; test: Test B pre/postemergence cocklebur; format: in vivo, Xanthium strumarium; settings: for Cocklebur plant response rating: scale of 0 to 10 where 0 is no effect and 10 is complete control
Procedure, shortened: as §1

[10] = test system: rice; test: Test B flood test rice; format: in vivo, Oryza sativa
Procedure, shortened: as §2

[11] = Postemergence, Rate 125 g/ha, scale 0 to 10, 0 is no effect, 10 is complete control
[12] = Preemergence, Rate 62 g/ha, scale 0 to 10 (0 no effect, 10 complete control)
[13] = Rate 500 g/ha, Postemergence, scale 0 to 10, 0 no effect, 10 complete control
[14] = Postemergence (flood test), Rate 125 g/ha, scale 0 to 10, 0 is no effect, 10 is complete control

CC(C)C(C)n1c(=O)on(C(=O)N(c2ccc(F)cc2F)C(C)C)c1=O (stereo not shown) [Compound 356]
3: Plant response rating, Soybean [1, 11] | B. signalgrass plant response rating (0 to 10 scale, 0 is no effect, 10 is complete control) ([5]; Preemergence, Rate 125 g/ha) | Plant response rating, Wheat [8, 11]
5: Plant response rating, Soybean [1, 13] | Rape plant response rating ([2]; Preemergence, Rate 500 g/ha) | Sugarbeets plant response rating ([4]; Preemergence, Rate 500 g/ha) | B. signalgrass plant response rating ([5]; Preemergence, Rate 250 g/ha, scale of 0 to 10 where 0 is no effect and 10 is complete control) | B. signalgrass plant response rating ([5]; Preemergence, Rate 500 g/ha, scale of 0 to 10 where 0 is no effect and 10 is complete control)
10: Plant response rating, Giant foxtail [6, 12] | Giant foxtail plant response rating (0 to 10 scale) ([6]; Preemergence, Rate 125 g/ha) | Giant foxtail plant response rating ([6]; Preemergence, Rate 250 g/ha) | Giant foxtail plant response rating ([6]; Preemergence, Rate 500 g/ha)
1: Plant response rating, B. signalgrass ([5]; Rate 250 g/ha, Postemergence, scale of 0 to 10 where 0 is no effect and 10 is complete control) | Plant response rating, B. signalgrass [5, 13]
2: Soybean plant response rating ([1]; Rate 62 g/ha, Postemergence) | Rape plant response rating (0 to 10 scale) ([2]; Preemergence, Rate 125 g/ha) | Sugarbeets plant response rating ([4]; Preemergence, Rate 250 g/ha) | Giant foxtail plant response rating ([6]; Rate 62 g/ha, Postemergence) | Wheat plant response rating ([8]; Rate 62 g/ha, Postemergence)
7: Plant response rating, Barnyardgrass ([3]; Rate 250 g/ha, Postemergence (flood test species), scale of 0 to 10 where 0 is no effect and 10 is complete control) | Plant response rating, Barnyardgrass ([3]; Rate 500 g/ha, listed under Postemergence (flood test species), scale 0 to 10, 0 no effect, 10 complete control)
4: Rape plant response rating ([2]; Preemergence, Rate 250 g/ha) | Plant response rating, Giant foxtail [6, 11] | Plant response rating, Wheat [8, 13]
8: Plant response rating, Giant foxtail [6, 13]
6: Wheat plant response rating ([8]; Preemergence, Rate 500 g/ha)
0: Plant response rating, Soybean [1, 12] | Soybean plant response rating (0 to 10 scale) ([1]; Preemergence, Rate 125 g/ha) | Soybean plant response rating ([1]; Preemergence, Rate 250 g/ha) | Soybean plant response rating ([1]; Preemergence, Rate 500 g/ha) | Plant response rating, Rape [2, 11] | Plant response rating, Rape [2, 12] | Rape plant response rating ([2]; Rate 62 g/ha, Postemergence) | Plant response rating, Rape [2, 13] | Plant response rating, Barnyardgrass [3, 14] | Plant response rating, Sugarbeets [4, 11] | Plant response rating, Sugarbeets [4, 12] | Sugarbeets plant response rating (0 to 10 scale) ([4]; Preemergence, Rate 125 g/ha) | Sugarbeets plant response rating ([4]; Rate 62 g/ha, Postemergence) | Plant response rating, Sugarbeets [4, 13] | Plant response rating, B. signalgrass [5, 11] | Plant response rating, B. signalgrass [5, 12] | B. signalgrass plant response rating ([5]; Rate 62 g/ha, Postemergence, scale of 0 to 10 where 0 is no effect and 10 is complete control) | Plant response rating, Nutsedge [7, 11] | Plant response rating, Nutsedge [7, 12] | Nutsedge plant response rating (0 to 10 scale) ([7]; Preemergence, Rate 125 g/ha) | Nutsedge plant response rating ([7]; Preemergence, Rate 250 g/ha) | Nutsedge plant response rating ([7]; Preemergence, Rate 500 g/ha) | Nutsedge plant response rating ([7]; Rate 62 g/ha, Postemergence) | Plant response rating, Nutsedge [7, 13] | Plant response rating, Wheat [8, 12] | Wheat plant response rating (0 to 10 scale) ([8]; Preemergence, Rate 125 g/ha) | Wheat plant response rating ([8]; Preemergence, Rate 250 g/ha) | Plant response rating, Cocklebur [9, 11] | Cocklebur plant response rating (0 to 10 scale) ([9]; Preemergence, Rate 125 g/ha) | Cocklebur plant response rating ([9]; Preemergence, Rate 250 g/ha) | Cocklebur plant response rating ([9]; Preemergence, Rate 500 g/ha) | Cocklebur plant response rating ([9]; Rate 62 g/ha, Postemergence) | Plant response rating, Cocklebur [9, 13] | Plant response rating, Rice [10, 14] | Rice plant response rating ([10]; Rate 62 g/ha, Postemergence (flood test species), scale of 0 to 10 where 0 is no effect and 10 is complete control)
